Read-outs that look alike come from different tables or passages of the source.
What was measured:
[1] = literature: W. Nimmich, Pharmazie, 19, (4), 281 (1964); cited from earlier work
[2] = test system: Sensitivity of the Mouse in the Hot Plate Test; assay: Hot plate test (sensitivity of the mouse, increase of reaction time); type: in vivo; conditions: po, read-out: ED100 (dose which increased the time of reaction by 100%)
Description: The test substances were administered as trituration in 1% methyl cellulose (0.1 ml/10 g of mouse) by means of an oesophageal tube.
Before treatment with the test substances, the animals were twice put on the hot plate at an interval of 30 minutes, whereby their individual times of reaction were measured. After treatment with a test substance, the times of reaction of the animals were again measured in an interval of 30 minutes.

[3] = test system: Pain of Inflammation on the Back Paw of the Rat; assay: Randall-Selitto test (pain of inflammation, yeast oedema, back paw of the rat); type: in vivo; conditions: po, 0.75 h, read-out: ED50 (dose which increased the pain threshold by 50%)
Description: The activity against the pain caused by inflammation was tested according to the method of RANDALL-SELITTO [Arch. Int. […] After a further 45 minutes the pain threshold was determined in the animals treated with the test compound and in the control animals treated only with the vehicle.

[4] = test system: body temperature of Chbb:THOM-rats; assay: Antipyretic activity (rectal body temperature of rats); type: in vivo, rat; conditions: for ED (-1.5 degC): Rattus norvegicus, po, read-out: ED-1.5° C. (dose which decreases the body temperature by 1.5° C.)
Description: The test substances were administered as a trituration in a 1% methyl cellulose in portions of 1.0 ml/100 g of animal using an oesophageal tube.
From the values for the average maximum decline of temperature, which were gained after the administration of the different doses of the test substances, and after a linear regression analysis according to LINDER, an ED-1.5° C. was calculated with the confidence limits according to FIELLER as the dose which decreases the body temperature by 1.5° C.

[5] = test system: methemoglobin; assay: Determination of the level of methemoglobin in the cat; type: in vivo; conditions: oesophageal tube
Description: The test substances were administered to cats of both sexes having an average body weight of 2.5 kg, as a trituration in 1% methyl cellulose using an oesophageal tube (2 ml/kg; the oesophageal tube was cleared in situ by aqua bidestillata). After a single application blood-tests were taken by heart-punctuation at different times, that is, at 3 hours, 5 hours, 24 hours, and 48 hours after administration. The photometric registration of the spectrum of hemoglobin as well as the determination of the content of hemoglobin in comparison to controls were effected according to the method of LEMBERG and LEGGE [Hematin Compounds and Bile Pigments, Interscience Publishers, New York (1949)].

[6] = Acute toxicity in mice; conditions: mouse, in vivo, po; Chbb-NMRI (SPF)-mice of both sexes, oesophageal tube, deaths within 14 days
Description: The acute toxicity was determined in Chbb-NMRI (SPF)-mice of both sexes, having an average body weight of 20 grams. The test compounds were administered as a trituration in 1% methyl cellulose (0.5 ml/10 g of animal) by means of an oesophageal tube. The calculation of the LD50 values was effected according to the method of LITCHFIELD and WILCOXON [J. Pharmacol. Exp. Ther., 96. 99 (1949)], based on the percentage of animals which died within 14 days after administration of different doses.

[7] = male Chbb:NMRI (SPF)-mice, oesophageal tube, hot plate 52° C.
[8] = male Chbb:THOM-rats, oesophageal tube, 45 minutes after administration
[9] = Chbb:THOM-rats, oesophageal tube
[10] = 100 mg/kg, 3 hours after administration
[11] = 100 mg/kg, 5 hours after administration
[12] = 100 mg/kg, 24 hours after administration
[13] = 200 mg/kg, 3 hours after administration
[14] = 200 mg/kg, 5 hours after administration
[15] = 200 mg/kg, 24 hours after administration
[16] = 50 mg/kg, 3 hours after administration
[17] = 50 mg/kg, 5 hours after administration
[18] = 50 mg/kg, 24 hours after administration

Structure (SMILES) | ED100 [2, 7] | ED50 [3, 8] | ED (-1.5 degC) [4, 9] | Average value of methemoglobin [5, 10] | Average value of methemoglobin [5, 11] | Average value of methemoglobin [5, 12] | Average value of methemoglobin [5, 13] | Average value of methemoglobin [5, 14] | Average value of methemoglobin [5, 15] | LD50 at 336 h [6] | Average value of methemoglobin [5, 16] | Average value of methemoglobin [5, 17] | Average value of methemoglobin [5, 18] | further results
O=c1[nH]c2ccccc2s1 [Example 2, Benzothiazol-2(3H)-one] | – | – | – | – | – | – | – | – | – | – | – | – | – | Antimicrobial and fungistatic activity [1]: antimicrobial and fungistatic acitivity
Cc1ccc2[nH]c(=O)sc2c1 [C, 6-Methyl-benzothiazol-2(3H)-one] | 144 mg/kg | 54.4 mg/kg | 30.9 mg/kg | 4.0 % of total hemoglobin | 2.4 % of total hemoglobin | 0.1 % of total hemoglobin | 13.6 % of total hemoglobin | 13.7 % of total hemoglobin | 0.4 % of total hemoglobin | 2160 mg/kg | – | – | – | –
COc1ccc2nc(O)sc2c1 [B, 6-Methoxy-benzothiazol-2(3H)-one] | 122 mg/kg | 142 mg/kg | 66.8 mg/kg | 4.6 % of total hemoglobin | 3.5 % of total hemoglobin | 0.0 % of total hemoglobin | 8.1 % of total hemoglobin | 11.7 % of total hemoglobin | 0.0 % of total hemoglobin | 1280 mg/kg | – | – | – | –
CCOc1ccc2[nH]c(=O)sc2c1 [A, 6-Ethoxy-benzothiazol-2(3H)-one] | 154 mg/kg | 64.3 mg/kg | 84.3 mg/kg | 0.4 % of total hemoglobin | 0.1 % of total hemoglobin | 0.3 % of total hemoglobin | 1.0 % of total hemoglobin | 0.4 % of total hemoglobin | 0.5 % of total hemoglobin | 1200 mg/kg | 0.3 % of total hemoglobin | 0.5 % of total hemoglobin | 1.1 % of total hemoglobin | –
CCOc1ccc(NC(C)=O)cc1 [D, Phenacetin, reference compound] | – | – | – | 32.0 % of total hemoglobin | 35.8 % of total hemoglobin | 0.5 % of total hemoglobin | 36.0 % of total hemoglobin | 46.6 % of total hemoglobin | 15.4 % of total hemoglobin | 1460 mg/kg | 19.6 % of total hemoglobin | 9.8 % of total hemoglobin | 0.5 % of total hemoglobin | ED100 [2]: 328 mg/kg; ED50 [3]: 274 mg/kg; ED (-1.5 degC) [4]: 34.4 mg/kg; Antipyretic activity (in words) ([4]; rat, in vivo): an antipyretic activity; Average value of methemoglobin ([5]; 25 mg/kg, 3 hours after administration): 1.9 % of total hemoglobin; Average value of methemoglobin ([5]; 25 mg/kg, 5 hours after administration): 0.4 % of total hemoglobin; Average value of methemoglobin ([5]; 200 mg/kg, 48 hours after administration): 1.1 % of total hemoglobin
